This note sets out measurements from article PMC2873968, “Novel protein kinase D inhibitors cause potent arrest in prostate cancer cell growth and motility” (BMC Chemical Biology, 2010).

In one assay the target is T1, recombinant human PKD3 (Homo sapiens, UniProt O94806).
T1 construct: purchased Enzo Life Sciences
T1 sequence (O94806 1-890): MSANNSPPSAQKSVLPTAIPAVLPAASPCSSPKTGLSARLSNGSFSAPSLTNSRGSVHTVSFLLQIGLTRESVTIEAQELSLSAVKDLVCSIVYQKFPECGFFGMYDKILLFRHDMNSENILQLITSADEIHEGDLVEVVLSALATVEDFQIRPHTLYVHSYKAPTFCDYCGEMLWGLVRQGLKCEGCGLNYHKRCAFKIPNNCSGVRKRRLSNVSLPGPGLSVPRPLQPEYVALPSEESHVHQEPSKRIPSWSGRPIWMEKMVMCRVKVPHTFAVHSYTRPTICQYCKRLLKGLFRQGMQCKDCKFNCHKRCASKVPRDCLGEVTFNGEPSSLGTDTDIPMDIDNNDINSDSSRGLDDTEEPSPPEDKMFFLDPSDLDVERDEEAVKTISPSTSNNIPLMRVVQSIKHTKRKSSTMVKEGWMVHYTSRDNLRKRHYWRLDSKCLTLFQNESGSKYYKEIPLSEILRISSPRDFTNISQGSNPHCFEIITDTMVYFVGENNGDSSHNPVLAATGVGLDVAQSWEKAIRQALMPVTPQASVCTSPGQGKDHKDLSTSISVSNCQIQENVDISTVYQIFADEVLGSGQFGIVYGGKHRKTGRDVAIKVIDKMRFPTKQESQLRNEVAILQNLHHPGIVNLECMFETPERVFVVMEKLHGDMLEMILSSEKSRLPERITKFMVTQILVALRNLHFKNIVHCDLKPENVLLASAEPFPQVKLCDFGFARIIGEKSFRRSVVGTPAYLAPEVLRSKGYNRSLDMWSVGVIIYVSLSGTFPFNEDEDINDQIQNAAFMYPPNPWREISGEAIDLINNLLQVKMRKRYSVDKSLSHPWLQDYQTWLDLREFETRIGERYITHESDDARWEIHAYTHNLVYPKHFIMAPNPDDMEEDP
Nature of the assay: In vitro radiometric PKD kinase assay. Format: biochemical. As to conditions: for IC50: radiometric kinase assay, mean ± S.E.M. The protocol:
In vitro radiometric kinase assays were conducted as previously described. Briefly, 1 μCi [γ-^32P] ATP (PerkinElmer Life Sciences), 70 μM ATP, 50 ng purified recombinant human PKD1 (Biomol International, Plymouth Meeting, PA), PKD2 (SignalChem, Richmond, BC, Canada), or CAMKIIα (Enzo Life Sciences) or 75 ng PKD3 (Enzo Life Sciences), and 2.5 μg syntide-2 (Sigma) in 50 μl kinase buffer containing 50 mM Tris-HCl, pH 7.5, 4 mM MgCl2, and 10 mM β-mercaptoethanol. For the CAMK assay, 0.5 mM CaCl2 and 30 ng/μl calmodulin were pre-incubated for 10 min on ice, and then added to each reaction mixture. The reaction was incubated at 30°C for 10 min, and 25 μl of the reaction mixture was then spotted onto Whatman P81 filter paper (Whatman Inc., Clifton, NJ). The filter papers were washed 3 times in 0.5% phosphoric acid, air-dried, and counted using a Beckman LS6500 multipurpose scintillation counter (Beckman).
The in vitro inhibitory activities of the novel compounds toward PKD were determined using radiometric PKD kinase activity assays. Recombinant human PKD1, -2, or -3 was incubated with the substrate, syntide-2, in the presence of 10 different concentrations of each compound. IC50 values were determined for each compound by plotting percent PKD activity versus compound concentration for each point.

The next assay concerns DU145 cells. Nature of the assay: Wound healing assay. Format: cell-based. As to conditions: 25 μM, 24 h. The protocol:
(§1) Wound-induced migration was measured as described previously. Briefly, PC3 or DU145 cells were grown to confluence in 6-well plates. Migration was initiated by scraping the monolayer with a pipette tip, creating a "wound." The indicated concentration of compound was added to the media, and the wound was imaged immediately under an inverted phase-contrast microscope with 10× objective. After 24 h, cells were fixed in methanol and stained with 1% crystal violet, and a final image was taken. The wound gap was measured, and % wound healing was calculated. The average % wound healing was determined based on at least 9 measurements of the wound gap.
(§2) The analogs inhibited wound healing in prostate cancer cells. DU145 cells (A) or PC3 cells (B) were grown to confluence in 6-well plates. The monolayer was wounded and imaged immediately. Cells were then treated with either vehicle (DMSO) or analogs at indicated concentration for 24 hours. Cells were then fixed and stained with 0.5% crystal violet. Percentage wound closure was calculated as an average of 9 determinations for each concentration/compound as described under "Methods." Data shown are the mean ± S.E.M. for three independent experiments. Statistical significance versus the DMSO control was determined by unpaired t-test in GraphPad Prism V. ns, not statistically significant; *, p < 0.05; **, p < 0.01; ***, p < 0.001.

Another assay deals with PC3 cells. Nature of the assay: Wound healing assay. The assay is classed as cell-based. The note with it: 25 μM, 24 h. The protocol:
as §1, §2

As to `O=C1NCCCSc2c1sc1ccc(O)cc21` [kb-NB165-92], at recombinant human PKD3, the “fold greater inhibition of PKD3 than PKD1 or -2” value is given as “about 2 fold” and the IC50 was found to be 58.8 ± 7.3 nM. For the same molecule, at recombinant human PKD3 (versus kb-NB142-70), the “change of potency for PKD3” value is given as “not altering potency”.
For the molecule `O=C1NCCSc2c1sc1ccc(O)c(I)c21` [kb-NB165-31], the wound closure in the assay on DU145 cells and in the assay with PC3 cells was 55-60% in each case. Further, the IC50 at recombinant human PKD3 amounted to 91.1 ± 17.2 nM.
Regarding `O=C1NCCSc2c1sc1ccc(O)cc21` [kb-NB142-70], the wound closure with DU145 cells and in the assay on PC3 cells was 25-35% in each case. Besides, the “fold stronger inhibition of PKD3 than CID755673” value at recombinant human PKD3 was “about 4 fold”. For the same molecule, the IC50 at recombinant human PKD3 is 53.2 ± 3.5 nM.
In the case of `COc1ccc2sc3c(c2c1)SCCNC3=O` [kb-NB165-09], the wound closure with DU145 cells and with PC3 cells was 25-35% throughout. Besides, the IC50 on recombinant human PKD3 stood at 98.5 ± 15.3 nM.
As to `COc1ccc2sc3c(c2c1)SCCCNC3=O` [kb-NB184-02], the IC50 at recombinant human PKD3 was found to be 325 ± 39 nM.

Usually IC50 stands for the concentration that gives 50% inhibition.
